Data reported in patent US20260317356A1, “SMALL MOLECULE MODULATORS OF OGG1” (AZKARRA THERAPEUTICS, INC., priority 2023, published 2026).

What was measured:
[1] = molecular target: T1, nLucOGG1 in HeLa cells (Homo sapiens, UniProt O15527); test: Cellular Thermal Shift Assay to measure compound affinity for nLucOGG1 in HeLa cells (CETSA DTm); assay type: cell-based; details: 10 μM compound, 37° C. 60 min, Tm vs DMSO control
T1 construct: thermal shift read by NanoGlo luminescence
Procedure: Biological Example 2: Cellular Thermal Shift Assay to Measure Compound Affinity for ^nLucOGG1 in HeLa Cells (CETSA DTm)
Cell Culture and Transfection of Hela Cells with ^nLucOGG1: For all tests, Hela cells were maintained in growth medium, Dulbecco's Minimum Eagle Medium (Multicell: Cat #319-005-CL) supplemented with 10% heat-inactivated fetal bovine serum (Gibco: Cat #12484-028) at 37° C. and 5% CO2 in a humidified tissue culture incubator. Transient transfections were performed using the Lonza 4-D Nucleofector X unit according to the manufacturer's protocol (Lonza Cat #V4XC-1024). Briefly, for each transfection, 1.2×10^6 cells were centrifuged at 1000 RPM for 5 minutes at room temperature before being diluted in 100 μL SE solution containing 18% v/v supplement and 1.5 μg pNF1-N-empty or pNF1-N-OGG1a vector. The total volume was transferred to a 100 μL nucleofection cuvette prior to transfer to the apparatus where HeLa cell nucleofection protocol CN-114 was executed. Following nucleofection, 500 μL complete media was added to the cells in the cuvette before transferring to a 6-well dish containing 1.5 mL of complete media. Cells were left to incubate for 48 hours before performing all cellular thermal shift experiments.
Cellular Thermal Shift Assays for Target Engagement (CETSA): Forty-eight hours following nucleofection, cells were washed once with DPBS−/−(Multicell: Cat #311-425-CL) and lifted with 0.25% Trypsin-EDTA (Multicell: Cat #325-043-CL) prior to dilution in growth medium and centrifugation at 1000 RPM for 5 minutes at room temperature. The resulting cell pellet was then resuspended in growth medium, cells were counted and the volume adjusted to 500 k cells/mL (2×).
For delta Tm determination, OGG1 inhibitor compounds were dissolved in DMSO to a final working concentration of 20 mM. Working solutions were then diluted in complete media to 20 μM or 0.1% DMSO for the vehicle control (2×). 2×OGG1 inhibitor compound solutions or 0.1% DMSO control were then pre-dispensed into MicroAmp Optical 96-well PCR reaction plates (Applied Biosystems: Cat #4346906) at 50 μL/well. Next, 50 μL or 25 k cells/well from the 2× cell suspension was added to the pre-loaded PCR plates. All plates were prepared as duplicates, covered with adhesive plate sealers (Perkin Elmer: Cat #6050185) and left to incubate at 37° C. for 60 minutes. During incubation, sufficient NanoGlo luciferase assay reagents (Promega: Cat #N1120) were left to equilibrate to room temperature in the dark. Immediately before heating the plates, the NanoGlo substrate was mixed with the NanoGlo buffer at a 1:50 ratio. The thermal cycler (Veriti 96-Well Thermal Cycler, Thermo Fisher Scientific) was allowed to reach the designated temperature prior to placement of the PCR plate into the heating block. For Tm determination experiments, duplicate plates containing a fixed concentration of test compound (10 μM final) as well as vehicle control were prepared to perform a 12-point temperature gradient spanning 37-70° C. for 3 minutes. Therefore, two thermal cycler protocols were set up covering two 6-step temperature gradients ranging from 37-52° C. and 52-70° C. Plates were then allowed to cool at room temperature for 5 minutes after the heat treatment followed by transfer of 75 μL of the reaction into a 96-well white polystyrene microplate (Corning: Cat #CLS3903) and addition of 75 μL of the prepared NanoGlo mixture. Microplates were then left to shake in the dark for 5 minutes before total luminescence was measured on a SpectraMax IX3 plate reader. The luminescence value obtained at each temperature was normalized to the luminescence obtained at 37° C. and the ratio obtained was plotted against the temperature. A Boltzman Sigmoidal non-linear regression was applied to the resulting data to determine Tm values and the difference between the Tm value for a given OGG1 inhibitor relative to the DMSO vehicle control was the delta Tm.

[2] = molecular target: hOGG1 (Homo sapiens, UniProt O15527); test: Surface Plasma Resonance with hOGG1 to measure compound affinity (OGG1 SPR Kd); assay type: binding; parameters: Protein His-hOGG1 (12-323) was prepared; details: Biacore T-200, immobilized his-tagged OGG1; pH 7.4; 2% DMSO; single-cycle kinetics
Procedure: Surface Plasma Resonance with hOGG1 to Measure Compound Affinity (OGG1 SPR Kd); All the SPR studies were performed on a Biacore T-200 instrument (Cytiva life sciences) using series S NTA sensor chip (cat #BR-1005-32, Cytiva life sciences). Recombinant his-tagged OGG1 (mol. wt. 36003; ChemPartner, Shanghai, China) was immobilized on NTA sensor chip via Ni^2+/NTA chelation using NTA reagent kit (Cytiva life sciences; cat #289950) as per manufacturer's recommended protocol. The running buffer during immobilization contained HEPES (20 mM, pH 7.4), 150 mM NaCl, 0.5 mM TCEP (tris(2-carboxyethyl)phosphine), and 0.005% Tween-20. NTA sensor chip (experimental cell) was first conditioned by injecting regeneration solution (350 mM EDTA, flow rate 30 μL/min, 2 injections 60 each). Additional wash with 50 mM NaOH was used whenever the chip was regenerated (flow rate 30 μL/min, 1 injection of 60 s). The sensor chip was then activated with 0.5 mM NiCl2 (flow rate 10 μL/min, 2 injection of 60 s, leading to a baseline increase of ~40 RU), and the excess Ni^2+ was removed using immobilization buffer containing 3 mM EDTA (flow rate 10 μL/min, 1 injection of 60 s). Finally, OGG1 (diluted to 6.2 μg/mL in running buffer) was injected on the activated sensor chip at a flow rate of 10 μL/min until immobilization level reached ~6000 RU. Any loosely bound protein was removed by passing the immobilization buffer overnight at 20 μL/min. At this point, the drift in baseline was ~0.01 RU/s and the final immobilization level was ~2500 RU. Reference cell was left untreated. SPR binding experiments were performed using binding buffer (20 mM HEPES (pH 7.4), 150 mM NaCl, 0.5 mM TCEP, 0.005% Tween-20, and 2% DMSO) at a flow rate of 30 μL/min. Single-cycle kinetics approach was used for binding analysis which consisted of sequential injections of increasing concentrations of test compound (a 3-fold serial dilution with 5 concentrations; highest 750 or 1500 nM; with final DMSO concentration at 2%) over the immobilized protein without regeneration step between each sample injection. Each injection was 45 seconds long (contact time), followed by a final dissociation of 600 sec. The Biacore T-200 Evaluation software 3.1 (GE Healthcare) was used to determine kinetic parameters from SPR data. All the reported sensograms were reference subtracted and corrected for refractive index contributions from solvent using 8-point solvent correction (1.4 to 2.8% DMSO in binding buffer). Data were fit to both steady state and 1:1 kinetic model to obtain Kon, Koff and binding affinity (Kd).

Sequence of hOGG1 (O15527 12-323): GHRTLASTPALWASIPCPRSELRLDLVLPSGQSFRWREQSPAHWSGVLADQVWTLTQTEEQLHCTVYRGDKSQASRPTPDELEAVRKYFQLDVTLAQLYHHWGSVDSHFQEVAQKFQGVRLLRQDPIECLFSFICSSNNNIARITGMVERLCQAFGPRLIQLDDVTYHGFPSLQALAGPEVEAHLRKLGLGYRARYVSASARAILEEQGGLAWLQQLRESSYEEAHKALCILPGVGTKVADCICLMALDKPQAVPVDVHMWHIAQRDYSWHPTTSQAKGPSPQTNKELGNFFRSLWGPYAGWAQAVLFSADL
T1 sequence (O15527 whole entry): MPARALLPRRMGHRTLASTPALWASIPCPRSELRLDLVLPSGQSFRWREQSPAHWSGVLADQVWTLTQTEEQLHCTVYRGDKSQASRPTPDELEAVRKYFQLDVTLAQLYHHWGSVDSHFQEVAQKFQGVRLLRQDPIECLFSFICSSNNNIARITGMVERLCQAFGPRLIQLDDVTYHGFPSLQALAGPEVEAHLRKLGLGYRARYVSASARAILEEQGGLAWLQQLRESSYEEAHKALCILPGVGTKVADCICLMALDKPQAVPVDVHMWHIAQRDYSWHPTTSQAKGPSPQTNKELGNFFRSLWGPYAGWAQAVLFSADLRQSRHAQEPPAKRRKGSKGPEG

Row | Structure (SMILES) | ΔTm at 10 µM [1] [°C] | Kd [2] [nM]
1 | COc1cc(NC(=O)[C@H]2CC[C@@H](N3Cc4c(C)cc(N(C)C)cc4C3=O)CC2)ccc1C [Example 135, (1s,4s)-4-(6-(Dimethylamino)-4-methyl-1-oxoisoindolin-2-yl)-N-(3-methoxy-4-methylphenyl)cyclohexane-1-carboxamide] | 6 to 8 | 10 to 100
2 | COc1ccc(NC(=O)[C@H]2CC[C@@H](N3Cc4c(C)cc(NCCN(C)C)cc4NC3=O)CC2)cc1C [Example 97, (1s,4s)-4-(7-(2-(dimethylamino)ethylamino)-5-methyl-2-oxo-1,2-dihydroquinazolin-3(4H)-yl)-N-(4-methoxy-3-methylphenyl)cyclohexanecarboxamide] | 8 to 10 | 10 to 100
3 | COc1ccc(NC(=O)[C@H]2CC[C@@H](N3Cc4c(C)cc(NCCN(C)C)cc4NC3=O)CC2)cc1C#N [Example 99, (1s,4s)-N-(3-cyano-4-methoxyphenyl)-4-(7-(2-(dimethylamino)ethylamino)-5-methyl-2-oxo-1,2-dihydroquinazolin-3(4H)-yl)cyclohexanecarboxamide] | 8 to 10 | 10 to 100
4 | COc1cc(NC(=O)[C@H]2CC[C@@H](N3Cc4c(C)ccc(P(C)(C)=O)c4NC3=O)CC2)ccc1C [Example 5, (1s,4s)-4-(8-(Dimethylphosphoryl)-5-methyl-2-oxo-1,2-dihydroquinazolin-3(4H)-yl)-N-(3-methoxy-4-methylphenyl)cyclohexanecarboxamide] | 6 to 8 | ≤ 10
5 | COc1cc(NC(=O)[C@H]2CC[C@@H](N3Cc4c(C)ccc(CNC(C)=O)c4NC3=O)CC2)ccc1C [Example 17, (1s,4s)-4-(8-(Acetamidomethyl)-5-methyl-2-oxo-1,2-dihydroquinazolin-3(4H)-yl)-N-(3-methoxy-4-methylphenyl)cyclohexanecarboxamide] | > 10 | ≤ 10
6 | COc1cc(NC(=O)[C@]2(C)CC[C@H](N3Cc4c(C)ccc(OC)c4NC3=O)CC2)ccc1C [Example 13, (1s,4s)-N-(3-Methoxy-4-methylphenyl)-4-(8-methoxy-5-methyl-2-oxo-1,2-dihydroquinazolin-3(4H)-yl)-1-methylcyclohexanecarboxamide] | 8 to 10 | 10 to 100
7 | COc1ccc(NC(=O)[C@]2(C)CC[C@H](N3Cc4c(C)ccc(OC)c4NC3=O)CC2)cc1C (single isomer, unassigned) [Example 11, (1s,4s)-N-(3-methyl-4-methoxyphenyl)-4-(8-methoxy-5-methyl-2-oxo-1,2-dihydroquinazolin-3(4H)-yl)-1-methylcyclohexanecarboxamide] | 8 to 10 | ≤ 10
8 | COc1ccc(NC(=O)[C@]2(C)CC[C@H](N3Cc4c(C)ccc(OC)c4NC3=O)CC2)cc1C#N (single isomer, unassigned) [Example 9, (1s,4s)-N-(3-cyano-4-methoxyphenyl)-4-(8-methoxy-5-methyl-2-oxo-1,2-dihydroquinazolin-3(4H)-yl)-1-methylcyclohexanecarboxamide] | 8 to 10 | ≤ 10
9 | COc1cc(NC(=O)[C@H]2CC[C@@H](N3Cc4ccccc4NC3=O)CC2)ccc1C [Example 67, (1s,4s)-N-(3-methoxy-4-methylphenyl)-4-(2-oxo-1,2-dihydroquinazolin-3(4H)-yl)cyclohexanecarboxamide] | 6 to 8 | 10 to 100
10 | CNCCNc1cc(C)c2c(c1)C(=O)N([C@H]1CC[C@@H](C(=O)Nc3ccc(C)c(OC)c3)CC1)C2 [Example 193, (1s,4s)-N-(3-methoxy-4-methylphenyl)-4-(4-methyl-6-(2-(methylamino)ethylamino)-1-oxoisoindolin-2-yl)cyclohexanecarboxamide] | > 10 | 10 to 100
11 | COc1ccc(NC(=O)[C@H]2CC[C@@H](N3Cc4c(C)cc(NCCN(C)C)cc4C3=O)CC2)cc1C#N [Example 259, (1s,4s)-N-(3-Cyano-4-methoxyphenyl)-4-(6-(2-(dimethylamino)ethylamino)-4-methyl-1-oxoisoindolin-2-yl)cyclohexanecarboxamide] | 8 to 10 | 10 to 100
12 | COc1cc(NC(=O)[C@H]2CC[C@@H](N3Cc4c(C)ccnc4NC3=O)CC2)ccc1C [Example 41, (1s,4s)-N-(3-Methoxy-4-methylphenyl)-4-(5-methyl-2-oxo-1,2-dihydropyrido[2,3-d]pyrimidin-3(4H)-yl)cyclohexanecarboxamide] | 6 to 8 | 10 to 100
13 | COc1cc(NC(=O)[C@H]2CC[C@@H](N3Cc4c(C)cc(CN)cc4NC3=O)CC2)ccc1C [Example 28, (1s,4s)-4-(7-(Aminomethyl)-5-methyl-2-oxo-1,2-dihydroquinazolin-3(4H)-yl)-N-(3-methoxy-4-methylphenyl)cyclohexanecarboxamide] | > 10 | ≤ 10
14 | COc1cc(NC(=O)[C@H]2CC[C@@H](N3Cc4c(C)ccc(N5CC6(COC6)C5)c4NC3=O)CC2)ccc1C [Example 35, (1s,4s)-N-(3-Methoxy-4-methylphenyl)-4-(5-methyl-2-oxo-8-(2-oxa-6-azaspiro[3.3]heptan-6-yl)-1,2-dihydroquinazolin-3(4H)-yl)cyclohexanecarboxamide] | 6 to 8 | 10 to 100
15 | COc1ccc(NC(=O)[C@H]2CC[C@@H](N3Cc4c(C)ccnc4NC3=O)CC2)cc1C [Example 16, (1s,4s)-N-(4-Methoxy-3-methylphenyl)-4-(5-methyl-2-oxo-1,2-dihydropyrido[2,3-d]pyrimidin-3(4H)-yl)cyclohexanecarboxamide] | 8 to 10 | ≤ 10
